# Values of other authors in PMC7904743, “WIDOCK: a reactive docking protocol for virtual screening of covalent inhibitors” (Journal of Computer-Aided Molecular Design, 2021).
# Read-outs that look alike come from different tables or passages of the source.
# Legend:
# [1] = thiol reactivity, cited from earlier work
# [2] = test system: NUDT7; details: protein labeling at 200 μM; experimental actives if % labeling higher than 50%; cited from earlier work
# [3] = test system: OTUB2; details: experimental actives if % labeling higher than 50%; cited from earlier work
# [4] = natural log of average rate constant k
# [5] = natural logarithm of average rate constant
smiles,measurement,setting,value
"O=C(CCl)N1CCN(Cc2ccc(Br)s2)CC1 [PCM-0102169, O=C(CCl)N1CCN(Cc2ccc(Br)s2)CC1]",ln(avg k),[1]; [4],-15.949
same,ln(avg k),[1]; [5],-15.949
same,NUDT7 % labeling,[2],0%
same,OTUB2 % labeling,[3],0%
"O=C(CCl)Nc1ccccc1C(F)(F)F [PCM-0102170, O=C(CCl)Nc1ccccc1C(F)(F)F]",ln(avg k),[1]; [4],-16.769
same,ln(avg k),[1]; [5],-16.769
same,NUDT7 % labeling,[2],0%
same,OTUB2 % labeling,[3],0%
"Cc1ccc(NC(=O)NC(=O)CCl)c(C)c1 [PCM-0102171, Cc1ccc(NC(=O)NC(=O)CCl)c(C)c1]",ln(avg k),[1]; [4],-15.812
same,ln(avg k),[1]; [5],-15.812
same,NUDT7 % labeling,[2],20%
same,OTUB2 % labeling,[3],10%
"CC(=O)Nc1cccc(NC(=O)CCl)c1 [PCM-0102172, CC(=O)Nc1cccc(NC(=O)CCl)c1]",ln(avg k),[1]; [4],-15.748
same,ln(avg k),[1]; [5],-15.748
same,NUDT7 % labeling,[2],0%
same,OTUB2 % labeling,[3],0%
"COc1ccccc1N1CCN(C(=O)CCl)CC1 [PCM-0102173, COc1ccccc1N1CCN(C(=O)CCl)CC1]",ln(avg k),[1]; [4],-15.826
same,ln(avg k),[1]; [5],-15.826
same,NUDT7 % labeling,[2],0%
same,OTUB2 % labeling,[3],0%
"O=C(CCl)NCc1cccc(Cl)c1 [PCM-0102174, O=C(CCl)NCc1cccc(Cl)c1]",ln(avg k),[1]; [4],-16.752
same,ln(avg k),[1]; [5],-16.752
same,NUDT7 % labeling,[2],0%
same,OTUB2 % labeling,[3],25%
"Cc1cc(NC(=O)CCl)ccc1N1CCCC1 [PCM-0102175, Cc1cc(NC(=O)CCl)ccc1N1CCCC1]",ln(avg k),[1]; [4],-15.490
same,ln(avg k),[1]; [5],-15.490
same,NUDT7 % labeling,[2],13%
same,OTUB2 % labeling,[3],39%
"Cc1ccc(NC(=O)CCl)cc1S(N)(=O)=O [PCM-0102177, Cc1ccc(NC(=O)CCl)cc1S(N)(=O)=O]",ln(avg k),[1]; [4],-15.256
same,ln(avg k),[1]; [5],-15.256
same,NUDT7 % labeling,[2],10%
same,OTUB2 % labeling,[3],27%
"CN(C(=O)CCl)C1CCS(=O)(=O)C1 (centres unmarked) [PCM-0102178, CN(C(=O)CCl)C1CCS(=O)(=O)C1]",ln(avg k),[1]; [4],-15.027
same,ln(avg k),[1]; [5],-15.027
same,NUDT7 % labeling,[2],0%
same,OTUB2 % labeling,[3],0%
"O=C(CCl)Nc1cccc(N2CCCC2=O)c1 [PCM-0102179, O=C(CCl)Nc1cccc(N2CCCC2=O)c1]",ln(avg k),[1]; [4],-15.495
same,ln(avg k),[1]; [5],-15.495
same,NUDT7 % labeling,[2],12%
same,OTUB2 % labeling,[3],47%
"CC(NC(=O)CCl)c1cccs1 (centres unmarked) [PCM-0102180, CC(NC(=O)CCl)c1cccs1]",ln(avg k),[1]; [4],-16.321
same,ln(avg k),[1]; [5],-16.321
same,NUDT7 % labeling,[2],16%
same,OTUB2 % labeling,[3],55%
"O=C(CCl)Nc1cccc(-c2nnc3n2CCCCC3)c1 [PCM-0102181, O=C(CCl)Nc1cccc(-c2nnc3n2CCCCC3)c1]",ln(avg k),[1]; [4],-15.929
same,ln(avg k),[1]; [5],-15.929
same,NUDT7 % labeling,[2],0%
same,OTUB2 % labeling,[3],0%
"Cc1c(C#N)c(NC(=O)CCl)n(C2CCCC2)c1C [PCM-0102183, Cc1c(C#N)c(NC(=O)CCl)n(C2CCCC2)c1C]",ln(avg k),[1]; [4],-15.991
same,ln(avg k),[1]; [5],-15.991
same,NUDT7 % labeling,[2],28%
same,OTUB2 % labeling,[3],0%
"Cc1cccc(N2CCN(C(=O)CCl)CC2)c1 [PCM-0102185, Cc1cccc(N2CCN(C(=O)CCl)CC2)c1]",ln(avg k),[1]; [4],-15.479
same,ln(avg k),[1]; [5],-15.479
same,NUDT7 % labeling,[2],5%
same,OTUB2 % labeling,[3],0%
"O=C(CCl)Nc1nnc(C2CC2)o1 [PCM-0102187, O=C(CCl)Nc1nnc(C2CC2)o1]",ln(avg k),[1]; [4],-17.207
same,ln(avg k),[1]; [5],-17.207
same,NUDT7 % labeling,[2],0%
same,OTUB2 % labeling,[3],0%
"CC(NC(=O)CCl)c1cccc(Cl)c1 (centres unmarked) [PCM-0102190, CC(NC(=O)CCl)c1cccc(Cl)c1]",ln(avg k),[1]; [4],-16.294
same,ln(avg k),[1]; [5],-16.294
same,NUDT7 % labeling,[2],42%
same,OTUB2 % labeling,[3],37%
"O=C(CCl)NCc1ccc(F)cc1 [PCM-0102192, O=C(CCl)NCc1ccc(F)cc1]",ln(avg k),[1]; [4],-16.677
same,ln(avg k),[1]; [5],-16.677
same,NUDT7 % labeling,[2],0%
same,OTUB2 % labeling,[3],31%
"O=C(CCl)N1CCN(S(=O)(=O)c2ccc3c(c2)CCC3)CC1 [PCM-0102193, O=C(CCl)N1CCN(S(=O)(=O)c2ccc3c(c2)CCC3)CC1]",ln(avg k),[1]; [4],-15.169
same,ln(avg k),[1]; [5],-15.169
same,NUDT7 % labeling,[2],0%
same,OTUB2 % labeling,[3],0%
"Cc1cc(NC(=O)CCl)on1 [PCM-0102197, Cc1cc(NC(=O)CCl)on1]",ln(avg k),[1]; [4],-16.303
same,ln(avg k),[1]; [5],-16.303
same,NUDT7 % labeling,[2],0%
same,OTUB2 % labeling,[3],0%
"O=C(CCl)Nc1cccc(Cl)c1 [PCM-0102198, O=C(CCl)Nc1cccc(Cl)c1]",ln(avg k),[1]; [4],-16.004
same,ln(avg k),[1]; [5],-16.004
same,NUDT7 % labeling,[2],28%
same,OTUB2 % labeling,[3],37%
"O=C(CCl)N1CCN(S(=O)(=O)c2c(F)cccc2F)CC1 [PCM-0102201, O=C(CCl)N1CCN(S(=O)(=O)c2c(F)cccc2F)CC1]",ln(avg k),[1]; [4],-15.250
same,ln(avg k),[1]; [5],-15.250
same,NUDT7 % labeling,[2],0%
same,OTUB2 % labeling,[3],0%
"Cc1sc(NC(=O)CCl)c(C#N)c1C [PCM-0102202, Cc1sc(NC(=O)CCl)c(C#N)c1C]",ln(avg k),[1]; [4],-15.804
same,ln(avg k),[1]; [5],-15.804
same,NUDT7 % labeling,[2],0%
same,OTUB2 % labeling,[3],0%
"NC(=O)C1CCCCN1C(=O)CCl (centres unmarked) [PCM-0102203, NC(=O)C1CCCCN1C(=O)CCl]",ln(avg k),[1]; [4],-15.988
same,ln(avg k),[1]; [5],-15.988
same,NUDT7 % labeling,[2],0%
same,OTUB2 % labeling,[3],0%
"COC(=O)c1ccc(NC(=O)CCl)cc1 [PCM-0102204, COC(=O)c1ccc(NC(=O)CCl)cc1]",ln(avg k),[1]; [4],-15.628
same,ln(avg k),[1]; [5],-15.628
same,NUDT7 % labeling,[2],0%
same,OTUB2 % labeling,[3],0%
"CC1Cc2cc(S(N)(=O)=O)ccc2N1C(=O)CCl (centres unmarked) [PCM-0102207, CC1Cc2cc(S(N)(=O)=O)ccc2N1C(=O)CCl]",ln(avg k),[1]; [4],-15.427
same,ln(avg k),[1]; [5],-15.427
same,NUDT7 % labeling,[2],7%
same,OTUB2 % labeling,[3],0%
"Cc1ccc(NC(=O)CCl)cc1Cl [PCM-0102208, Cc1ccc(NC(=O)CCl)cc1Cl]",ln(avg k),[1]; [4],-15.859
same,ln(avg k),[1]; [5],-15.859
same,NUDT7 % labeling,[2],19%
same,OTUB2 % labeling,[3],46%
"O=C(CCl)Nc1cc2c(cc1Cl)OCO2 [PCM-0102209, O=C(CCl)Nc1cc2c(cc1Cl)OCO2]",ln(avg k),[1]; [4],-16.385
same,ln(avg k),[1]; [5],-16.385
same,NUDT7 % labeling,[2],13%
same,OTUB2 % labeling,[3],27%
"COc1cc(Cl)c(C)cc1NC(=O)CCl [PCM-0102210, COc1cc(Cl)c(C)cc1NC(=O)CCl]",ln(avg k),[1]; [4],-15.971
same,ln(avg k),[1]; [5],-15.971
same,NUDT7 % labeling,[2],0%
same,OTUB2 % labeling,[3],25%
"Cc1nnc(NC(=O)CCl)s1 [PCM-0102211, Cc1nnc(NC(=O)CCl)s1]",ln(avg k),[1]; [4],-15.999
same,ln(avg k),[1]; [5],-15.999
same,NUDT7 % labeling,[2],0%
same,OTUB2 % labeling,[3],0%
"CC(NC(=O)CCl)c1ccc(Cl)cc1Cl (centres unmarked) [PCM-0102212, CC(NC(=O)CCl)c1ccc(Cl)cc1Cl]",ln(avg k),[1]; [4],-16.295
same,ln(avg k),[1]; [5],-16.295
same,NUDT7 % labeling,[2],54%
same,OTUB2 % labeling,[3],18%
"O=C(CCl)N1CCN(c2ccccn2)CC1 [PCM-0102213, O=C(CCl)N1CCN(c2ccccn2)CC1]",ln(avg k),[1]; [4],-15.928
same,ln(avg k),[1]; [5],-15.928
same,NUDT7 % labeling,[2],0%
same,OTUB2 % labeling,[3],0%
"Cc1cc(Cl)ccc1NC(=O)CCl [PCM-0102214, Cc1cc(Cl)ccc1NC(=O)CCl]",ln(avg k),[1]; [4],-16.385
same,ln(avg k),[1]; [5],-16.385
same,NUDT7 % labeling,[2],8%
same,OTUB2 % labeling,[3],39%
"CC1CCN(C(=O)CCl)c2ccccc2S1 (centres unmarked) [PCM-0102216, CC1CCN(C(=O)CCl)c2ccccc2S1]",ln(avg k),[1]; [4],-16.224
same,ln(avg k),[1]; [5],-16.224
same,NUDT7 % labeling,[2],32%
same,OTUB2 % labeling,[3],0%
"O=C(CCl)Nc1ccc(F)c(Cl)c1 [PCM-0102217, O=C(CCl)Nc1ccc(F)c(Cl)c1]",ln(avg k),[1]; [4],-15.473
same,ln(avg k),[1]; [5],-15.473
same,NUDT7 % labeling,[2],0%
same,OTUB2 % labeling,[3],14%
"O=C(Nc1ccccc1)C1CCN(C(=O)CCl)CC1 [PCM-0102219, O=C(Nc1ccccc1)C1CCN(C(=O)CCl)CC1]",ln(avg k),[1]; [4],-15.089
same,ln(avg k),[1]; [5],-15.089
same,NUDT7 % labeling,[2],0%
same,OTUB2 % labeling,[3],0%
